Drawing on patent US5559144A, “Furyl and thienyl alkynyl-N-hydroxy urea derivatives” (Abbott Laboratories, priority 1995, dated 1996), this text covers IC50 and inhibition in vivo for 23 compounds.

The target in assay [1] is T1, 5-Lipoxygenase from RBL-1 20,000xg Supernatant (Rattus norvegicus, UniProt P12527).
T1 construct: 20,000 xg supernatant from 1.5 million homogenized RBL-1 cells; endogenous in cells; host or cells: RBL-1 cells (20,000 xg supernatant of homogenate)
T1 sequence (P12527 1-673): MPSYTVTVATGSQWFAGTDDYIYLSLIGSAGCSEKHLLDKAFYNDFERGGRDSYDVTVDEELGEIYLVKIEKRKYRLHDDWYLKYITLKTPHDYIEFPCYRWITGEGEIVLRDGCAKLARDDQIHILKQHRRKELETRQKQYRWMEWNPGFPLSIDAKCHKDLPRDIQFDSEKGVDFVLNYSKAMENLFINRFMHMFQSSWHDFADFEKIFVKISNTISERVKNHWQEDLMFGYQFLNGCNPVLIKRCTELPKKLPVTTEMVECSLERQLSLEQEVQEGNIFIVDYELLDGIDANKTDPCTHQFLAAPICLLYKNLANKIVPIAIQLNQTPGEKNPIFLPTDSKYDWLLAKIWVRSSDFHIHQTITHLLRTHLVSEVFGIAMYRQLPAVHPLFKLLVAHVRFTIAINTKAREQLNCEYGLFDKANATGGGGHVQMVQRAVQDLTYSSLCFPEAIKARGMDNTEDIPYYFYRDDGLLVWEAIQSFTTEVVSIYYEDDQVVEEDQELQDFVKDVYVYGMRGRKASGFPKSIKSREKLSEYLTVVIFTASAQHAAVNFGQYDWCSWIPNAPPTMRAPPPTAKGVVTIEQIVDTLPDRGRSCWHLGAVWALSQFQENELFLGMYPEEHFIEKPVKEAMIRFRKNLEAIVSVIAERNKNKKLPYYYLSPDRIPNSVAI
Put plainly: 5-lipoxygenase inhibitory activity, 20,000 xg supernatant from homogenized RBL-1 cells. The class given is biochemical. The note with it: radiolabeled arachidonic acid, triplicate. As for the experimental part: Assays to determine 5-lipoxygenase inhibitory activity of representative compounds of the present invention were performed in […] incubations containing the 20,000 xg supernatant from 1.5 million homogenized RBL-1 cells and various concentrations of the test compound. Reactions were initiated by addition of radiolabeled arachidonic acid and terminated by acidification and ether extraction. Reaction products were separated from nonconverted substrate by thin layer chromatography and measured by liquid scintillation spectroscopy. All incubations are performed in triplicate. Inhibition of 5-lipoxygenase activity was calculated as the ratio of the amount of product formed in the presence and absence of inhibitor. […] (Dyer, R. D.; Haviv, F.; Hanel, A. M.; Bornemier, D. A.; Carter, G. W. Fed. Proc., Fed. Am. Soc. Exp. Biol. 1984, 43, 1462A).

Assay [2] deals with Leukotrienes (biosynthesis). The assay can be described thus: Inhibition of leukotriene biosynthesis in vivo after oral administration, rat peritoneal anaphylaxis model. As to conditions: 1 h, gavage one hour prior to antigen challenge, read-out: Percent Inhibition of Leukotrienes; for inhibition in vivo at 100 µmol/kg: Oral Dose at 100 μmol/kg; for inhibition in vivo at 30 µmol/kg: Oral Dose at 30 μmol/kg. As for the experimental part:
Inhibition of the biosynthesis of leuktrienes in vivo after oral administration of compound was determined using a rat peritoneal anaphylaxis model in a similar manner as that described by Young and coworkers (Young, P. R.; Dyer, R. D.; Carter, G. W. Fed. Proc., Fed. Am. Soc. Exp. Biol. 1985, 44, 1185). In this model rats were injected intraperitoneally (ip) with rabbit antibody to bovine serum albumin (BSA) and three hours later injected ip with BSA to induce an antgen-antibody response. Rats were sacrificed 15 minutes after this challenge and the peritoneal fluids were collected and analyzed for leukotriene levels. Test compounds were administered by gavage one hour prior to the antigen challenge. Percent inhibition values were determined by comparing the treatment group to the mean of the control group.

For `CC(C#Cc1ccc(F)cc1)N(O)C(N)=O` (stereo not shown) [Example 21, N-Hydroxy-N-[4,(4-fluorophenyl)-3-butyn-2-yl]urea], inhibition in assay [1] was half-maximal at 2100 nM (IC50). The inhibition in vivo at 100 µmol/kg in assay [2] came out at 90%.
For `CC(C)c1ccc(C#CC(C)N(O)C(N)=O)cc1` (stereo not shown) [Example 22, N-Hydroxy-N-[4-[4-(1-methylethyl)phenyl]-3-butyn-2-yl]urea], in that order: 400 nM and 86%.
Turning to `CCc1ccc(C#CC(C)N(O)C(=O)NC)cc1` (stereo not shown) [Example 25, N-Hydroxy-N-[4-(4-ethylphenyl)-3-butyn-2-yl]-N'-methylurea], the IC50 (as a rule, the point on the concentration scale where inhibition reaches its midpoint) in assay [1] worked out at 400 nM. Further, the inhibition in vivo at 100 µmol/kg in assay [2] stood at 69%.
For `CC(C#CCCc1ccccc1)N(O)C(N)=O` (stereo not shown) [Example 26, N-Hydroxy-N-(6-phenyl-3-hexyn-2-yl)urea], inhibition in assay [1] was half-maximal at 900 nM (IC50). For the same compound, the inhibition in vivo at 100 µmol/kg in assay [2] stood at 78%.
For `CC(C#CCc1ccccc1)N(O)C(N)=O` (stereo not shown) [Example 30, N-Hydroxy-N-(5-phenyl-3-pentyn-2-yl)urea], in that order: 2100 nM and 95%.
For `NC(=O)N(O)CC#Cc1ccccc1` [Example 32, N-Hydroxy-N,(3,phenyl-2-propynyl)urea], in that order: 5900 nM and 97%.
For `NC(=O)N(O)CC#Cc1cccc(Oc2ccccc2)c1` [Example 33, N-Hydroxy-N-[3-(3-phenoxyphenyl)-2-propynyl]urea], in that order: 500 nM and 99%.
Consider `CC(C#Cc1ccoc1)N(O)C(N)=O` (stereo not shown) [Example 34, N-Hydroxy-N-[4-(3-furyl)-3-butyn-2-yl]urea], for which, in assay [1], the IC50 was 7000 nM. In assay [2], the inhibition in vivo at 100 µmol/kg came to 96%.
`Cc1ccc(Oc2cccc(C#CCN(O)C(N)=O)c2)cc1` [Example 36, N-Hydroxy-N-[3-[3-(4-methylphenoxy)phenyl]-2-propynyl]urea] registered an IC50 in assay [1] of 600 nM. For the same compound, the inhibition in vivo at 100 µmol/kg in assay [2] worked out at 99%.
For `COc1ccc(Oc2cccc(C#CCN(O)C(N)=O)c2)cc1` [Example 39], in that order: 600 nM and 96%.
In the same order, the values of `CC(C#Cc1cccc(Oc2ccc(Cl)cc2)c1)N(O)C(N)=O` (stereo not shown) [Example 42, N-Hydroxy-N-[4-[3-(4-chlorophenoxy)phenyl]-3-butyn-2-yl]urea] are 500 nM and 66%.
For `CC(C#Cc1cccc(Oc2ccc(F)cc2)c1)N(O)C(N)=O` (stereo not shown) [Example 43, N-Hydroxy-N-[4-[3-(4-fluorophenoxy)phenyl]-3-butyn-2-yl]urea], in that order: 300 nM and 98%.
Compound `NC(=O)N(O)CC#Cc1cccc(Oc2ccc(F)cc2)c1` [Example 44, N-Hydroxy-N-[3-[3-(4-fluorophenoxy)phenyl]-2-propynyl]urea] gave an IC50 in assay [1] of 400 nM. In addition, the inhibition in vivo at 100 µmol/kg in assay [2] worked out at 99%.
In assay [1], `CC(C#Cc1cccc(Oc2ccncc2)c1)N(O)C(N)=O` (stereo not shown) [Example 46, N-Hydroxy-N-[4-[3-(4-pyridinyloxy)phenyl]-3-butyn-2-yl]urea] came in with an IC50 of 1200 nM. The inhibition in vivo at 100 µmol/kg in assay [2] is 98%.
In assay [1], `CC(C#Cc1cccc(Oc2ccccn2)c1)N(O)C(N)=O` (stereo not shown) [Example 47, N-Hydroxy-N-[4-[3-(2-pyridinyloxy)phenyl]-3-butyn-2-yl]urea] gave an IC50 of 900 nM. Further, the inhibition in vivo at 100 µmol/kg in assay [2] was found to be 99%.
`CC(C#Cc1ccc(Oc2ccc(F)cc2)o1)N(O)C(N)=O` (stereo not shown) [Example 57, N-hydroxy-N-{4-[5-(4-fluorophenoxy)-2-furyl]-3-butyn-2-yl}urea] displayed an IC50 in assay [1] of 200 nM. The inhibition in vivo at 30 µmol/kg in assay [2] was found to be 83%.
`CC(C#Cc1ccc(Oc2ccccc2)o1)N(O)C(N)=O` (stereo not shown) [Example 58, N-hydroxy-N-[4-(5-phenoxy-2-furyl)-3-butyn-2-yl]urea]: the IC50 in assay [1] was 200 nM. Also, in assay [2], the inhibition in vivo at 30 µmol/kg came out at 83%.
In the same order, the values of `CC(C#Cc1ccc(Sc2ccccc2)o1)N(O)C(N)=O` (stereo not shown) [Example 59, N-hydroxy-N-[4-(5-thiophenoxy-2-furyl)-3-butyn-2-yl]urea] are 200 nM and 62%.
For `Cc1ccc(Oc2ccc(C#CC(C)N(O)C(N)=O)o2)cc1` (stereo not shown) [Example 62, N-hydroxy-N-{4-[5-(4-methylphenoxy)-2-furyl]-3-butyn-2-yl}urea], in that order: 300 nM and 65%.
In the same order, the values of `CCC(C#Cc1cccc(Oc2ccccn2)c1)N(O)C(N)=O` (stereo not shown) [Example 64, N-Hydroxy-N-[5-[3-(2-pyridinyloxy)phenyl]-4-pentyn-3-yl]urea] are 600 nM and 78%.
Consider `CC(C#Cc1cccc(Oc2nccs2)c1)N(O)C(N)=O` (stereo not shown) [Example 66, N-Hydroxy-N-[4-[3-(2-thiazolyloxy)phenyl]-3-butyn-2-yl]urea], for which, in assay [1], the IC50 was 500 nM. Further, the inhibition in vivo at 30 µmol/kg in assay [2] was determined as 40%.
`Cc1cccc(Oc2cccc(C#CC(C)N(O)C(N)=O)c2)n1` (stereo not shown) [Example 67, N-Hydroxy-N-[4-[3-(6-methylpyridin-2-yloxy)phenyl]-3-butyn-2-yl]urea]: in assay [1], the concentration for half-maximal inhibition (IC50) was determined as 300 nM. Further, the inhibition in vivo at 30 µmol/kg in assay [2] came out at 56%.
For `CC(C#Cc1cccc(Oc2cccc(Cl)n2)c1)N(O)C(N)=O` (stereo not shown) [Example 68, N-Hydoxy-N-[4-[3-(6-chloropyridin-2-yloxy)phenyl]-3-butyn-2-yl]urea], in that order: 200 nM and 61%.
